Among the data in PubChem BioAssay AID256 (DTP/NCI, 2004) are T/C values, retold here.

The subject of this assay is CD2F1 mice, L1210 leukemia ip, survival T/C. Nature of the assay: NCI In Vivo Anticancer Drug Screen. Data for tumor model L1210 Leukemia (intraperitoneal) in CD2F1 (CDF1) mice. The following applies: higher = longer survival. Summed up:
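Antitumor effect is scored in animals hosting a serially transplanted tumor. Values compare compound-dosed animals against vehicle-only controls as a simple quotient.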

The mark [1] stands for this setting: endpoint: mean survival time, dose: 100.0 mg/kg/injection, schedule: Q01DX009 (ip), vehicle: saline with Tween-80.
[2] abbreviates: endpoint: mean survival time, dose: 200.0 mg/kg/injection, schedule: Q01DX009 (ip), vehicle: saline with Tween-80.
Where [3] appears, read: endpoint: mean survival time, dose: 400.0 mg/kg/injection, schedule: Q01DX009 (ip), vehicle: saline with Tween-80.
Where [4] appears, read: endpoint: mean survival time, dose: 100.0 mg/kg/injection, schedule: Q04DX003 (ip), vehicle: saline with Tween-80.
Where [5] appears, read: endpoint: mean survival time, dose: 200.0 mg/kg/injection, schedule: Q04DX003 (ip), vehicle: saline with Tween-80.
[6] abbreviates: endpoint: mean survival time, dose: 400.0 mg/kg/injection, schedule: Q04DX003 (ip), vehicle: saline with Tween-80.
[7] abbreviates: endpoint: mean survival time, dose: 100.0 mg/kg/injection, schedule: Q04DX002 (ip), vehicle: saline with Tween-80.
Setting [8] is: endpoint: mean survival time, dose: 25.0 mg/kg/injection, schedule: Q01DX009 (ip), vehicle: saline with Tween-80.
[9] abbreviates: endpoint: mean survival time, dose: 25.0 mg/kg/injection, schedule: Q04DX003 (ip), vehicle: saline with Tween-80.
Where [10] appears, read: endpoint: mean survival time, dose: 50.0 mg/kg/injection, schedule: Q01DX009 (ip), vehicle: saline with Tween-80.
Setting [11] is: endpoint: mean survival time, dose: 50.0 mg/kg/injection, schedule: Q04DX003 (ip), vehicle: saline with Tween-80.

Several values for one entry are separate records, joined by “and”; a condition that tells them apart may be missing. Identical values can stand only once. Inconclusive results and toxic doses are left out.

Regarding `CSc1ccnc2ccccc12`, the T/C (endpoint: mean survival time, dose: 12.5 mg/kg/injection, schedule: Q01DX009 (ip), vehicle: other) is 106 % of control; the T/C (endpoint: mean survival time, dose: 25.0 mg/kg/injection, schedule: Q01DX009 (ip), vehicle: other) is 100 % of control; the T/C (endpoint: mean survival time, dose: 50.0 mg/kg/injection, schedule: Q01DX009 (ip), vehicle: other) was 103 % of control.
As for `CC(=O)NC(C(=O)O)C(C)C.CC(=O)NC(C(=O)O)C(C)C.[NH-]C1CCCCC1[NH-].[Pt+2]` (configuration not stated), the T/C (endpoint: median survival time, dose: 3.12 mg/kg/injection, schedule: Q04DX003 (ip), vehicle: saline) is 102 % of control and 107 % of control and 108 % of control; the T/C (endpoint: median survival time, dose: 6.25 mg/kg/injection, schedule: Q04DX003 (ip), vehicle: saline) is 107 % of control [middle of 4 runs]; the T/C (endpoint: median survival time, dose: 12.5 mg/kg/injection, schedule: Q04DX003 (ip), vehicle: saline) was 112 % of control [middle of 4 runs]; the T/C (endpoint: median survival time, dose: 25.0 mg/kg/injection, schedule: Q04DX003 (ip), vehicle: saline) is 112 % of control [middle of 4 runs]; the T/C (endpoint: median survival time, dose: 50.0 mg/kg/injection, schedule: Q04DX003 (ip), vehicle: saline) is 122 % of control and 119 % of control; the T/C (endpoint: median survival time, dose: 200.0 mg/kg/injection, schedule: Q04DX003 (ip), vehicle: saline) is 187 % of control [middle of 4 runs].
As to `COC(=O)C1=C(C)NC(=O)NC1c1ccccc1` (configuration not stated), the T/C runs as follows: under setting [1], 95 % of control; under setting [2], 97 % of control; under setting [3], 97 % of control.
As for `Nc1nc(N)c2cc(CCc3ccc(C(=O)NC(CCC(=O)O)C(=O)O)cc3)ccc2n1` (configuration not stated), for the setting “endpoint: mean survival time, dose: 0.31 mg/kg/injection, schedule: Q01DX009 (ip), vehicle: Klucel (hydroxypropylcellulose) (HPC)”, the T/C is 119 % of control.
Consider `CCCCCCCCCCC(CCCCCCCCCC)c1ccccc1`, for which the T/C (endpoint: mean survival time, dose: 100.0 mg/kg/injection, schedule: Q01DX001 (ip), vehicle: saline sonified) is 108 % of control; the T/C (endpoint: mean survival time, dose: 200.0 mg/kg/injection, schedule: Q01DX001 (ip), vehicle: saline sonified) was 104 % of control; the T/C (endpoint: mean survival time, dose: 400.0 mg/kg/injection, schedule: Q01DX001 (ip), vehicle: saline sonified) is 114 % of control.
On to `COC(=O)c1ncccc1C(=O)O`, for which the T/C under setting [4] is 94 % of control, the T/C under setting [5] is 86 % of control and the T/C under setting [6] was 86 % of control.
In the case of `Cn1c(=O)[nH]c2c(nc(-c3ccc(Cl)cc3)n2C)c1=O`, the T/C runs as follows: (endpoint: mean survival time, dose: 12.5 mg/kg/injection, schedule: Q01DX005 (ip), vehicle: other) 91 % of control; (endpoint: mean survival time, dose: 25.0 mg/kg/injection, schedule: Q01DX005 (ip), vehicle: other) 100 % of control; (endpoint: mean survival time, dose: 50.0 mg/kg/injection, schedule: Q01DX005 (ip), vehicle: other) 95 % of control; (endpoint: mean survival time, dose: 100.0 mg/kg/injection, schedule: Q01DX005 (ip), vehicle: other) 95 % of control; (endpoint: mean survival time, dose: 200.0 mg/kg/injection, schedule: Q01DX005 (ip), vehicle: other) 100 % of control.
Consider `CCOC(=O)Cc1nc2ccccc2[nH]1`, for which the T/C by setting is: (endpoint: mean survival time, dose: 100.0 mg/kg/injection, schedule: Q01DX001 (ip), vehicle: saline with Tween-80) 95 % of control; under setting [7], 101 % of control; under setting [4], 90 % of control and 102 % of control; (endpoint: mean survival time, dose: 200.0 mg/kg/injection, schedule: Q01DX001 (ip), vehicle: saline with Tween-80) 95 % of control; (endpoint: mean survival time, dose: 200.0 mg/kg/injection, schedule: Q04DX002 (ip), vehicle: saline with Tween-80) 93 % of control; under setting [5], 93 % of control and 97 % of control. Further, the T/C by setting is: (endpoint: mean survival time, dose: 400.0 mg/kg/injection, schedule: Q01DX001 (ip), vehicle: saline with Tween-80) 93 % of control; (endpoint: mean survival time, dose: 400.0 mg/kg/injection, schedule: Q04DX002 (ip), vehicle: saline with Tween-80) 95 % of control; under setting [6], 91 % of control.
Take `C=C1CC2(CCC23COC(=O)C3=C)OC1=O` (configuration not stated): the T/C was 107 % of control (endpoint: mean survival time, dose: 0.78 mg/kg/injection, schedule: Q01DX009 (ip), vehicle: other); 100 % of control (endpoint: mean survival time, dose: 0.78 mg/kg/injection, schedule: Q04DX002 (ip), vehicle: other); 100 % of control (endpoint: mean survival time, dose: 0.78 mg/kg/injection, schedule: Q04DX003 (ip), vehicle: other); 102 % of control (endpoint: mean survival time, dose: 1.56 mg/kg/injection, schedule: Q01DX009 (ip), vehicle: other); 105 % of control (endpoint: mean survival time, dose: 1.56 mg/kg/injection, schedule: Q04DX002 (ip), vehicle: other); 108 % of control (endpoint: mean survival time, dose: 1.56 mg/kg/injection, schedule: Q04DX003 (ip), vehicle: other). The T/C was 95 % of control (endpoint: mean survival time, dose: 3.12 mg/kg/injection, schedule: Q01DX009 (ip), vehicle: other); 105 % of control (endpoint: mean survival time, dose: 3.12 mg/kg/injection, schedule: Q04DX002 (ip), vehicle: other); 102 % of control (endpoint: mean survival time, dose: 3.12 mg/kg/injection, schedule: Q04DX003 (ip), vehicle: other); 107 % of control (endpoint: mean survival time, dose: 6.25 mg/kg/injection, schedule: Q01DX009 (ip), vehicle: other); 109 % of control (endpoint: mean survival time, dose: 6.25 mg/kg/injection, schedule: Q04DX002 (ip), vehicle: other); 105 % of control (endpoint: mean survival time, dose: 6.25 mg/kg/injection, schedule: Q04DX003 (ip), vehicle: other). Also, the T/C (endpoint: mean survival time, dose: 12.5 mg/kg/injection, schedule: Q01DX001 (ip), vehicle: other) is 107 % of control.
In the case of `CC1CNC(=S)S1` (configuration not stated), the T/C under setting [1] was 94 % of control; the T/C under setting [4] is 97 % of control; the T/C under setting [2] is 109 % of control; the T/C under setting [5] was 94 % of control; the T/C under setting [3] is 105 % of control; the T/C under setting [6] was 101 % of control.
`O=C(O)/C(Cl)=C(/Cl)C(Cl)=C(Cl)Cl`: the T/C was 96 % of control under setting [8]; 100 % of control under setting [9]; 95 % of control under setting [10]; 98 % of control under setting [11]; 93 % of control under setting [1]; 91 % of control under setting [4].
Regarding `COC1=CC2=C3[C@H](Cc4cc5c(c(c4)Oc4ccc(cc4)C[C@H]4c6cc7c(cc6CCN4C)OCC3(O7)C1=O)OCO5)N(C)CC2` (some centres not stated), the T/C by setting is: under setting [11], 96 % of control; under setting [4], 98 % of control; under setting [5], 96 % of control.
Consider `NC(CCC(=O)Nc1cccc2ccccc12)C(=O)O` (configuration not stated), for which the T/C under setting [10] was 98 % of control, the T/C under setting [1] was 107 % of control and the T/C under setting [2] is 104 % of control.
On to `CCCOC(=O)c1ccc(N2N=C(C)CCC2=O)cc1`, for which the T/C reads like this: (endpoint: mean survival time, dose: 25.0 mg/kg/injection, schedule: Q04DX002 (ip), vehicle: saline with Tween-80) 97 % of control; (endpoint: mean survival time, dose: 50.0 mg/kg/injection, schedule: Q04DX002 (ip), vehicle: saline with Tween-80) 102 % of control; under setting [7], 97 % of control.
With `Cc1ccccc1NCC#N`, the T/C was 101 % of control under setting [8], 97 % of control under setting [10] and 93 % of control under setting [4].
Turning to `N=C(N)c1ccc(OCCCCOc2ccc(N)cc2)cc1`, the T/C (endpoint: mean survival time, dose: 50.0 mg/kg/injection, schedule: Q01DX009 (ip), vehicle: Klucel (hydroxypropylcellulose) (HPC)) was 101 % of control; the T/C (endpoint: mean survival time, dose: 100.0 mg/kg/injection, schedule: Q01DX009 (ip), vehicle: Klucel (hydroxypropylcellulose) (HPC)) is 94 % of control; the T/C (endpoint: mean survival time, dose: 200.0 mg/kg/injection, schedule: Q01DX009 (ip), vehicle: Klucel (hydroxypropylcellulose) (HPC)) is 119 % of control.
Regarding `NC(=S)N/N=C/c1cccc(CC(O)(C(F)(F)F)C(F)(F)F)n1`, the T/C (endpoint: mean survival time, dose: 12.5 mg/kg/injection, schedule: Q04DX003 (ip), vehicle: saline with Tween-80) is 97 % of control; the T/C under setting [9] is 94 % of control; the T/C under setting [11] was 96 % of control.
In the case of `COc1cc2c(cc1O)NC(OC)C1CC(O)CN1C2=O` (configuration not stated), the T/C reads like this: (endpoint: median survival time, dose: 0.02 mg/kg/injection, schedule: Q01DX005 (ip), vehicle: DMSO) 101 % of control; (endpoint: median survival time, dose: 0.4 mg/kg/injection, schedule: Q01DX005 (ip), vehicle: DMSO) 102 % of control; (endpoint: median survival time, dose: 0.8 mg/kg/injection, schedule: Q01DX005 (ip), vehicle: DMSO) 100 % of control; (endpoint: median survival time, dose: 1.6 mg/kg/injection, schedule: Q01DX005 (ip), vehicle: DMSO) 102 % of control; (endpoint: median survival time, dose: 3.2 mg/kg/injection, schedule: Q01DX005 (ip), vehicle: DMSO) 111 % of control; (endpoint: median survival time, dose: 6.4 mg/kg/injection, schedule: Q01DX005 (ip), vehicle: DMSO) 115 % of control.
